Experiment: Stability study, storage −20° C.
Assay type: physicochemical
Method: For 6-(4-(tert-butyl)phenoxy)pyridin-3-amine monohydrochloride two different types of stability studies were performed including short-term and long-term stability studies, respectively, at 25° C. (RH, 60%), −5° C. and −20° C. for 36 months and an accelerated study at 40° C. (RH, 75%) over 6 months. In terms of analytical determinations six tests were involved including appearance, assay free base mean and purity mean, water, IR and XRPD. Appearance was determined by visual inspection. The product should be a white or off-white powder. Water content was determined according to USP <921> coulometric method. Identification of 6-(4-(tert-butyl)phenoxy)pyridin-3-amine monohydrochloride by IR spectroscopy was done according to USP <197>, comparing the spectrum obtained to that of the reference standard. X-Ray powder diffraction (XRPD) was performed according to USP <941> against the reference XRPD spectrum. Purity and assay of free base was done by HPLC-UV. Two methods were used. Mobile phases in the first method were water and acetonitrile. Mobile phases in the second method were water (0.5 mL of trifluoroacetic acid was added to 1000 mL of water) and acetonitrile (0.4 mL of trifluoroacetic acid was added to 1000 mL of acetonitrile). Equipment and chromatographic conditions for identification and determination of purity and assay of the 6-(4-(tert-butyl)phenoxy)pyridin-3-amine monohydrochloride by HPLC-UV according to the first method and the second method, respectively, are shown in Tables 5 and 6. [table] [table]

[1] = 6 months stability studies, 3 mths
[2] = 6 months stability studies, 6 mths
[3] = 6 months stability studies, Release data
[4] = 36 months stability studies, 6 mths
[5] = 36 months stability studies, 9 mths
[6] = 36 months stability studies, 12 mths
[7] = 36 months stability studies, 18 mths
[8] = 36 months stability studies, 24 mths

For CC(C)(C)c1ccc(Oc2ccc(N)cn2)cc1.Cl [6-(4-(tert-butyl)phenoxy)pyridin-3-amine monohydrochloride], the “Assay free base, mean” value [1] was 86.1 % m/m, the “IR, conforms to reference” value [1] was “complies” and the “Purity, mean” value [1] was 99 % area. For the same compound, the Water [1] was 0.02 % m/m, the “Assay free base, mean” value [2] was 87.3 % m/m and the “IR, conforms to reference” value [2] was “complies”. The “Purity, mean” value [2] was 99 % area, the Water [2] was 0.02 % m/m and the “Assay free base, mean” value [3] was 89.4 % m/m. For the same compound, the “IR, conforms to reference” value [3] was “complies”, the “Purity, mean” value [3] was 100 % area and the Water [3] was 0.01 % m/m. For the same compound, the Water (36 months stability studies, 3 mths) was 0.02 % m/m, the “Assay free base, mean” value [4] was 87.4 % m/m and the “Purity, mean” value [4] was 100.0 % area. For the same compound, the Water [4] was 0.02 % m/m, the “Assay free base, mean” value [5] was 88.6 % m/m and the “Purity, mean” value [5] was 100.0 % area. For the same compound, the Water [5] was 0.03 % m/m, the “Assay free base, mean” value [6] was 87.5 % m/m and the “Purity, mean” value [6] was 100.0 % area. For the same compound, the Water [6] was 0.02 % m/m, the “Assay free base, mean” value [7] was 87.4 % m/m and the “Purity, mean” value [7] was 100.0 % area. For the same compound, the Water [7] was 0.01 % m/m, the “Assay free base, mean” value [8] was 87.4 % m/m and the “Purity, mean” value [8] was 100.0 % area. It also gave a Water [8] of 0.02 % m/m and a Water (36 months stability studies, Release data) of 0.01 % m/m.
